Experimental data as given in US11911388B2, “Treatment for diabetes in patients with insufficient glycemic control despite therapy with an oral or non-oral antidiabetic drug” (Boehringer Ingelheim International GmbH, priority 2008, dated 2024).
Entries after “also recorded” stand apart in the source; their conditions may differ.

Columns and labels:
db/db mice [1] = test: HbA1c and blood glucose after 54 day treatment of db/db mice (SU secondary drug failure model); assay type: in vivo, mouse; settings: 3 mg/kg p.o. daily, day 54, female db/db mice; for glucose values compared to control: semi-fed
From the text: Sulfonylurea (SU) like glibenclamide are one of the most frequently used drugs in diabetes treatment. Long-term treatment with SU causes elevated basal insulin secretion and decreased glucose-stimulated insulin secretion. These characteristics may play an important role for the development of hypoglycemia and secondary drug failure. […] In addition, correlating with age of the animals pancreatic β-cells of aging db/db mice fails to compensate the high glucose excursion with enhanced insulin secretion. Therefore this model is appropriate to study the glibenclamide induced secondary drug failure in comparison to a DPP-4 inhibitor (e.g. BI 1356). Female db/db mice at 5 weeks of age, are obtained from Charles River, Germany. Animals are housed in groups of 5-6 animals under a 12:[…] cycle (lights on at 04:00 AM and lights off at 04:00 PM) in temperature and humidity controlled rooms. All animals have free access to regular rodent chow (Altromin standard #1324 chow, Denmark) and water ad libitum. The compound solutions are administered daily at 08.00 AM on experimental days 0-59 by per oral gavage using a gastric tube connected to a 3 ml syringe (Luer-lockTM, Becton). Groups of 12 animals are used: vehicle, 0.5% Natrosol; BI 1356 3 mg/kg; glibenclamide 3 mg/kg. Body weight food intake and water intake is recorded daily for the first two and twice weekly for the remaining period. On experimental day 54 blood glucose and HbA1c levels are determined in semi-fed state, on day 59 an OGTT (2 g/kg) is performed. Blood samples for determination of “fed” levels blood glucose and HbA1c are performed at 10.00 AM on day 54. Prior to blood sampling animals are transferred to clean cages with no food two hours before blood sampling. At day 59 an OGTT (2 g/kg) is performed following an over-night fast of the animals and insulin is detected at t=15 min. For each data point, 10 μl blood is drawn from the tip of the tail into a microcapillary tube and measured using a Biosen S line glucose analyzer. HbA1c: are measured using a standard enzyme assay kit on a fully automated analyzer (Bayer).

db/db mice [2] = test: Insulin during OGTT (2 g/kg) on day 59 in db/db mice; assay type: in vivo, mouse; settings: 3 mg/kg p.o. daily, day 59, OGTT 2 g/kg, t=15 min
From the text: Sulfonylurea (SU) like glibenclamide are one of the most frequently used drugs in diabetes treatment. Long-term treatment with SU causes elevated basal insulin secretion and decreased glucose-stimulated insulin secretion. These characteristics may play an important role for the development of hypoglycemia and secondary drug failure. […] In addition, correlating with age of the animals pancreatic β-cells of aging db/db mice fails to compensate the high glucose excursion with enhanced insulin secretion. Therefore this model is appropriate to study the glibenclamide induced secondary drug failure in comparison to a DPP-4 inhibitor (e.g. BI 1356).
Female db/db mice at 5 weeks of age, are obtained from Charles River, Germany. […]
The compound solutions are administered daily at 08.00 AM on experimental days 0-59 by per oral gavage using a gastric tube connected to a 3 ml syringe (Luer-lock™, Becton). […] Body weight food intake and water intake is recorded daily for the first two and twice weekly for the remaining period. On experimental day 54 blood glucose and HbA1c levels are determined in semi-fed state, on day 59 an OGTT (2 g/kg) is performed.
Blood samples for determination of “fed” levels blood glucose and HbA1c are performed at 10.00 AM on day 54. […] At day 59 an OGTT (2 g/kg) is performed following an over-night fast of the animals and insulin is detected at t=15 min. […]

Structure (SMILES)	HbA1c compared to control (db/db mice [1])	glucose values compared to control (db/db mice [1])	form and route of excretion (human, in vivo)	excretion via the kidney (therapeutic oral dose levels)	increase in insulin during OGTT (db/db mice [2])
CC#CCn1c(N2CCC[C@@H](N)C2)nc2c1c(=O)n(Cc1nc(C)c3ccccc3n1)c(=O)n2C [BI 1356]	improves; also recorded: superior to glibenclamide	improves; also recorded: superior to glibenclamide	primarily excreted unchanged via the bile	< 7 % of the administered oral dose	able to respond to the increased glucose levels with an up-regulation of insulin; also recorded: superior to glibenclamide
COc1ccc(Cl)cc1C(=O)NCCc1ccc(S(=O)(=O)NC(=O)NC2CCCCC2)cc1 [glibenclamide, reference compound]	impairs	impairs	–	–	–
